Measurements as given in article PMC12648101, “Targeting SARS-CoV-2 main protease for the discovery of a broad-spectrum COVID-19 inhibitor by intensive multi-tiered validation” (Acta Pharmaceutica Sinica. B, 2025).
“Also recorded” adds a separate entry of the source. Read-outs that look alike come from different tables or passages of the source.

How the values were obtained:
[1] = Cell viability assay (CCK-8); format: cell-based; conditions: African green monkey; Vero E6 cells, CCK8, 48 h
Procedure: Cell viability was assessed using the Cell Counting Kit-8 assay (CCK-8, MedChemExpress, China). In brief, Vero E6 cells (ATCC, CRL-1586) at a density of 5 × 10^4 cells/well were seeded into 96-well plates for 24 h. Cells were cultured in Dulbecco's modified Eagle's medium (DMEM) (Gibco, USA), supplemented with 10% (v/v) serum, 100 U/mL penicillin, and 100 μg/mL streptomycin. Serial dilutions of CHLA (200 μL) at concentrations of 100, 80, 60, 40, 20, 10, and 5 μmol/L were added to wells and incubated for another 24 or 48 h, respectively. Following the incubation, the existing medium was replaced with fresh medium containing a 10% CCK-8 solution and incubated at 37 °C for 1 h. Absorbance at 450 nm was measured using a Microplate Reader (TECAN Sunrise™) to determine the final optical density. Data were analyzed using GraphPad Prism 8.0 software (version 8.0). All experiments were performed in triplicate to ensure reliability.

SARS-CoV-2 WT [2] = experiment: Antiviral CPE assay in infected Vero E6 cells; format: cell-based; conditions: Severe acute respiratory syndrome coronavirus 2, Vero C1008, Vero E6, MOI 0.01, 48 h
SARS-CoV-2 Delta = experiment: microbe, parasite or virus in culture; format: cell-based; conditions: Severe acute respiratory syndrome coronavirus 2, Vero C1008, 48 h
[3] = tested on: SARS-CoV-2 Omicron BA.1.1; experiment: microbe, parasite or virus in culture; format: cell-based; conditions: Severe acute respiratory syndrome coronavirus 2, Vero C1008, 48 h
[4] = tested on: SARS-CoV-2 Omicron BA.2.3; experiment: microbe, parasite or virus in culture; format: cell-based; conditions: Severe acute respiratory syndrome coronavirus 2, Vero C1008, 48 h
SARS-CoV-2 Omicron BA.4 = experiment: microbe, parasite or virus in culture; format: cell-based; conditions: Severe acute respiratory syndrome coronavirus 2, Vero C1008, 48 h
SARS-CoV-2 Omicron BA.5 = experiment: microbe, parasite or virus in culture; format: cell-based; conditions: Severe acute respiratory syndrome coronavirus 2, Vero C1008, 48 h
SARS-CoV-2 WT [5] = format: in vivo, K18-hACE2 transgenic mice; conditions: for lung live viral titers vs Virus group: three days post-infection; for body weight of infected mice: 1000 FFU SARS-CoV-2 WT
[6] = Pharmacokinetic study in rats (LC-MS/MS); format: in vivo, Sprague–Dawley (SD) rats; conditions: male, Sprague-Dawley, plasma, rat
Procedure: The PK study was strictly conducted according to the National Medical Products Administration (NMPA) Good Laboratory Practice (GLP) guidelines, which was undertaken at the Animal Center of Tianjin University of Traditional Chinese Medicine. Sprague–Dawley (SD) rats were supplied by Beijing Vital River Laboratory Animal Technology Co., Ltd. (Beijing, China). Male SD rats (n = 5 per group, weights: 180–200 g and age: 6–8 weeks) were administered by CHLA (solubilized in DMSO: 0.9% NaCl = 5:95, v/v) at doses of 10 and 5 mg/kg via intragastric (i.g.) and intravenous (i.v.) routes, respectively. Blood samples were collected at specified intervals post-administration (0.033, 0.083, 0.166, 0.25, 0.5, 1, 4, 6, 8, 12, 24, 36, and 48 h), followed by centrifugation at 4000 rpm (Thermo Scientific Sorvall ST 40R Centrifuge, Osterode, Germany) and 4 °C for 10 min. The supernatant plasma was stored at −20 °C for subsequent analysis.
Analysis was performed on a Shimadzu LC-20AD Prominence Liquid Chromatograph (Shimadzu Corporation, Japan)–AB Sciex API […] mass spectrometer (Applied Biosystems, USA) (LC–MS/MS). Samples were separated on an Agilent Poroshell 120 EC-C18 column (2.7 μm, 3.0 mm × 50 mm) (Agilent, USA). The column temperature was 35 °C, and the mobile phase consisted of water with 0.1% formic acid (v/v, buffer A) and acetonitrile with 0.1% formic acid (v/v, buffer B). The elution was conducted according to a 5-min gradient program (0–0.5 min, 10% buffer B; 0.5–2 min, 10%–90% buffer B; 2–3.5 min, 90% buffer B; 3.5–5 min, 10% buffer B), with the flow rate set at 0.5 mL/min and the injection volume at 10 μL. The mass spectrometry operated in positive MRM mode, targeting the precursor and product ions of CHLA (m/z 953.3 →301.1 and 953.3 →275.1, respectively). Tolbutamide served as the internal standard (IS), with precursor and product ions at 269.1 →170.1. The parameters were analyzed by […] via DAS 3.2.8 software. The regression equation for CHLA, based on the peak area ratio of CHLA to IS against the concentration, was (Eq. (1)):(1) y=0.0000796x+0.000162(r=0.9968) indicating a strong correlation.

[7] = Caco-2 bidirectional permeability assay; format: in vitro ADME; conditions: human, pH 7.4
Caco-2 cells = experiment: Caco-2 bidirectional permeability assay; format: in vitro ADME
[8] = Acute toxicity test in mice; format: in vivo, C57BL/6 mice; conditions: 200 and 500 mg/kg, i.g.
Procedure: Specific-pathogen-free (SPF) C57BL/6 mice were used, balanced for gender, with males and females weighing 18–20 g. The Institutional Committee approved all animal experiment procedures in this study for Animal Care and Biosafety at the Animal Center, Tianjin University of Traditional Chinese Medicine. CHLA was weighed and subsequently dissolved in a 5% DMSO solution, which was then diluted with normal saline (0.9% sodium chloride solution) and mixed to achieve the desired concentration. To evaluate CHLA's acute toxicity, mice were randomly allocated into three groups (n = 10): a control group administered normal saline, and two treatment groups administered CHLA solution at 200 and 500 mg/kg, respectively. We monitored all mice that occurred twice daily over 14 days, focusing on toxicological signs, changes in body weight, and behavioral abnormalities. Upon concluding the study, specimens from blood, heart, liver, spleen, lung, and kidney were harvested for analysis.

[9] = Solubility of the dosing preparation at the effective dose; format: physicochemical; conditions: 300 mg/kg dose, saline with 5% DMSO
Procedure: In vivo, a total of 20 female K18-hACE2 transgenic mice aged 8 weeks were obtained from GemPharmatech (Nanjing, China), which were classified into four groups with five mice in each group: Group 1 served as the untreated, infected control (Virus group); Group 2 received 300 mg/kg of PF-07321332 as the positive control; and Groups 3 and 4 were administered CHLA at doses of 150 and 300 mg/kg, respectively. On Day 0, these K18-hACE2 mice were intranasally inoculated with 1000 FFU of SARS-CoV-2 WT, which was pre-diluted in 50 μL of DMEM. The therapeutic administration was commenced 2 h after infection. The K18-hACE2 transgenic mice were orally administered with either PF-07321332 (300 mg/kg) or CHLA at varying doses (150 and 300 mg/kg), which were dissolved in a saline solution containing 5% DMSO. The mice were euthanized three days post-administration, and the lungs were collected and placed in 1 mL PBS and preserved at −80 °C to evaluate pulmonary virus titers.

E166V mutation of M^pro = conditions: E166V mutant vs wild-type M^pro; cited from earlier work

## O=C(O)C[C@@H]1C(=O)O[C@H]2[C@@H]3OC(=O)c4cc(O)c(O)c(O)c4-c4c(cc(O)c(O)c4O)C(=O)OC[C@H]2O[C@@H](OC(=O)c2cc(O)c(O)c(O)c2)[C@@H]3OC(=O)c2cc(O)c(O)c3c2[C@H]1[C@H](O)C(=O)O3 [CHLA, chebulagic acid]
[1]
  CC50 at 48 h: > 100000 nM
SARS-CoV-2 WT [2]
  EC50: 430 nM
SARS-CoV-2 Delta
  EC50: 1860 nM
[3]
  EC50: 820 nM
[4]
  EC50: 1110 nM
SARS-CoV-2 Omicron BA.4
  EC50: 1890 nM
SARS-CoV-2 Omicron BA.5
  EC50: 1910 nM
SARS-CoV-2 WT [5]; 150 mg/kg oral
  lung live viral titers vs Virus group: no significant difference
SARS-CoV-2 WT [5]; 300 mg/kg oral
  body weight of infected mice: weight recovery
  lung live viral titers vs Virus group: significant decrease
SARS-CoV-2 WT [5]; 300 mg/kg oral, P > 0.05
  antiviral efficacy compared with positive control PF-07321332 (300 mg/kg): equivalent to that of PF-07321332; also recorded: comparable to that of PF-07321332
[6]; iv, i.v. 5 mg/kg
  AUC(0-t): 16300 ± 1980 ng·h/mL
  Cmax: 4160 ± 79.4 ng/mL
  Tmax: 0.033 h
  half-life: 39.6 ± 13.5 h
[6]; oral, i.g. 10 mg/kg vs i.v. 5 mg/kg, read-out: oral bioavailability (F)
  bioavailability: 7.1%
[6]; po, i.g. 10 mg/kg
  AUC(0-t): 2320 ng·h/mL
  Cmax: 241 ng/mL
  Tmax: 2 h
  half-life: 15.2 h
[7]; Caco-2, 5 μmol/L
  Papp A→B at 2 h, 5 μmol/L: 1.2 ×10⁻⁶ cm/s
  Papp B→A at 2 h, 5 μmol/L: 0.39 ×10⁻⁶ cm/s
  efflux ratio at 2 h, 5 μmol/L: 0.33
Caco-2 cells; Caco-2, 5 μmol/L
  membrane permeability, in words: moderate membrane permeability
Caco-2 cells; Caco-2, 5 µmol/L, Table S3
  Papp (A–B): 1.20 10-6, cm/s
  Papp (B–A): 0.39 10-6, cm/s
[8]
  histology of lung, heart, spleen, liver and kidney: No obvious histological changes
[8]; 14 days
  acute oral toxicity, overall finding: safe
  body weight vs control group: no significant difference
[9]
  solubility at the effective dose: superior solubility

## C[C@H]1O[C@@H](O[C@H]2[C@@H](O)C[C@H](O[C@H]3[C@@H](O)C[C@H](O[C@H]4CC[C@@]5(C)[C@H](CC[C@@H]6[C@@H]5C[C@@H](O)[C@]5(C)[C@@H](C7=CC(=O)OC7)CC[C@]65O)C4)O[C@@H]3C)O[C@@H]2C)C[C@H](O)[C@@H]1O [Digoxin]
[7]; Caco-2, 5 μmol/L
  efflux ratio at 2 h, 5 μmol/L: 29.6
[7]; Caco-2, 5 µmol/L, Table S3
  Papp A→B at 2 h, 5 μmol/L: 0.68 ×10⁻⁶ cm/s
  Papp B→A at 2 h, 5 μmol/L: 20.2 ×10⁻⁶ cm/s

## Nc1cc(N2CCCCC2)nc(N)[n+]1[O-] [Minoxidil]
[7]; Caco-2, 5 μmol/L
  Papp A→B at 2 h, 5 μmol/L: 5.94 ×10⁻⁶ cm/s
  efflux ratio at 2 h, 5 μmol/L: 0.96
[7]; Caco-2, 5 µmol/L, Table S3
  Papp B→A at 2 h, 5 μmol/L: 5.71 ×10⁻⁶ cm/s
Caco-2 cells; Caco-2, 5 µmol/L, Table S3
  Papp (A–B): 5.94 10-6, cm/s

## CC(C)(C)[C@H](NC(=O)C(F)(F)F)C(=O)N1C[C@H]2[C@@H]([C@H]1C(=O)N[C@H](C#N)C[C@@H]1CCNC1=O)C2(C)C [PF-07321332, reference compound]
SARS-CoV-2 WT [2]
  EC50: 30 nM
SARS-CoV-2 Delta
  EC50: 50 nM
[3]
  EC50: 50 nM
[4]
  EC50: 40 nM
SARS-CoV-2 Omicron BA.4
  EC50: 80 nM
SARS-CoV-2 Omicron BA.5
  EC50: 40 nM
SARS-CoV-2 WT [5]; 300 mg/kg oral
  body weight of infected mice: weight recovery
  lung live viral titers vs Virus group: significant decrease
[9]
  solubility at the effective dose: poor solubility
E166V mutation of M^pro
  loss of inhibitory efficacy caused by the E166V mutation: over 200 fold
